Test results from patent US20230287415A1, “COMBINED THERAPY AGAINST CANCER” (FUNDACIÓ INSTITUT HOSPITAL DEL MAR D'INVESTIGACIONS …, priority 2020, published 2023).

Assays:
LCoR = assay: Doxorubicin treatment of breast cancer cells, LCoR mRNA by qRT-PCR; format: cell-based, human; settings: 360 nM during 48 hours, MDA-MB-231 cells
Protocol: Low dose treatment of breast cancer cells (360 nM during 48 hours) induced an increase of 2.3 fold change mRNA expression of LCoR in MDA-MB-231 cells.
Cell lines, culture conditions and treatments. All cell lines used in the study, including mammary epithelial cell lines (human HMLE), breast cancer cell lines (human MDA-MB-231 and mouse 4TO7; PyMT8119; AT3 cell lines) and other cell lines (HEK293T, H29 and HeLa), were cultured using the standard conditions according the American Type Culture Collection (ATCC) instructions. Doxorrubicin treatment was performed at 360 nM during 48 hours in MDA-MB-231 cells.
qRT-PCR analyses. Total mRNA was isolated using the RNAeasy isolation Kit (QIAGEN). mRNA reverse transcription was done using Applied Biosystems reactants and real-time quantitative PCR performed using the Power SYBR green PCR master mix (Applied Biosystems). All analyses were performed using an ABI 7900HT PCR machine. mRNA expression was normalized by the expression of GAPDH in each sample.

PyMT8119-OVA cells = assay: Cytotoxic T-cell lymphocyte (CTL) co-culture assay; format: cell-based, mouse; settings: OT-I CD8+ T-cells co-cultured with LCoR-OE tumor cells, in combination with anti-PD-L1
Excerpt: These paradoxical effects of LCoR, increased immunogenicity vs. increased PD-L1, poses LCoR expressing cells as largely responsive cells to anti-PD-L1 immune-checkpoint blockade therapy.
The transgenic OT-I mouse model strain with specific TCR for the OVA-derived peptide SIINFEKL MHC-I presented, were used to isolate splenocytes and CD8+T-cells that specifically recognize the SIINFEKL peptide (OVA 257-264). 9-week OT-I mice were sacrificed to obtain the spleen. Using mechanical dissociation of the spleen over a sterile 40 μm mesh screen. Total splenocytes were plated in six well plates and non-attached T cells were separated from adherent dendritic cells (DC) after 24 hours. CD8+T-cells were isolated by FACS.
Cytotoxic T-cell lymphocyte (CTL) co-culture assays. CD8+ T-cells were isolated from the spleen of OT-I mice and activated in culture with OVA peptide during 48 hours. Activated CD8+ T-cells were cocultured in 24-well plates with PyMT8119-OVA cells in different ratios of effector T-cells:tumor cells (E:T). After 5 days of coculture, T-cells and debris were removed, washed with media and stained with Sulforhodamine B (SRB) for measuring cytotoxicity (Vichai and Kirtikara 2006). […]

Compound	increase of mRNA expression of LCoR (LCoR) [fold change]	sensitivity to immune detection and killing (PyMT8119-OVA cells)
COc1cccc2c1C(=O)c1c(O)c3c(c(O)c1C2=O)C[C@@](O)(C(=O)CO)C[C@@H]3O[C@H]1C[C@H](N)[C@H](O)[C@H](C)O1 [Doxorubicin]	2.3	
Atezolizumab		enhanced sensitivity to immune detection and killing
